According to PMC7730438, “Generation of KS-58 as the first K-Ras(G12D)-inhibitory peptide presenting anti-cancer activity in vivo” (Scientific Reports, 2020):
Several values for one entry are separate records, joined by “and”; a condition that tells them apart may be missing. Equal values may be shown once. Starred links: 1 amine or outer side, 2 acyl side, 3 side chain; linkers in the order of their positions; H or OH if unused. Positions of bridges follow the written chain, without caps; N, C: chain ends. Non-standard residues stand in square brackets, D forms with d. Residues, ends and D or L forms follow the SMILES beside them. Groups on a side chain read outwards from the residue. *: point of attachment. Biotin = O=C1N[C@H]2[C@H](CS[C@H]2CCCCC(=O)*)N1; Phe(4-F) = N[C@@H](Cc1ccc(F)cc1)C(=O)O; X1 = CCCCCCC[C@H](N[*:1])C(=O)[*:2]; Nle = CCCC[C@H](N)C(=O)O; X2 = C(C[*:1])C[*:2]; Ahx = NCCCCCC(=O)O; βAla = NCCC(=O)O

Assays:
[1] = molecular target: Recombinant human K-Ras(G12D) (human) (UniProt P01116)
[2] = molecular target: SmBiT-fused K-Ras(G12D) (human) (UniProt P01116); test: split reporter (BiFC, NanoBiT); NanoBiT in transfected HEK293T cells; peptides (30 µM) added to the cells for 2 h; remaining K-Ras(G12D)-SOS1 or K-Ras(G12D)-BRAF luminescence in % of no peptide
A427 cells = test: Cell proliferation assay (CellTiter-Glo, 72 h); type: cell-based, human; conditions: A427 (G12D), peptide 30 µM, n = 4, ± SEM
Description: A427 (ATCC HTB-53), A549 (ATCC CCL-185), H1975 (ATCC CRL-5908), PANC-1 (ATCC CRL-1469), MIA PaCa-2 (ATCC CRL-1420), and Capan-1 (ATCC HTB-79) cells were purchased from ATCC, and each cell was cultured in medium supplemented with 10% fetal bovine serum (FBS), according to the protocol recommended by the manufacture.
The effect of peptides on cell proliferation of A427, A549, H1975, PANC-1, MIA PaCa-2, and Capan-1 cells was determined by 72 h exposure to peptides. Cells were seeded at 1000 cells/well in 96-well tissue culture plates in each growth media and allowed to adhere overnight on day 0. Peptides were solved in DMSO and then diluted with each growth media for a constant final DMSO concentration of 0.5%. Media in the wells were removed and replaced with diluted peptide solutions, and cells were incubated for 3 days. During the incubation, medium containing the peptides was replaced every day. Relative cell numbers were estimated using CellTiter-Glo assay kit (G7570, Promega, WI, USA) according to the manufacturer’s instructions. Luminescence was detected using SpectraMax i3x (MOLECULAR DEVICES, CA, USA). Cell proliferation rate (%) was calculated based on cell numbers at day 0 as 0% and at day 3 without peptide treatment as 100%.

[3] = molecular target: T1, K-Ras(G12D)^GDP–SOS1 interaction (Homo sapiens, UniProt P01116, G12D); test: Intracellular PPI inhibition assay using NanoBiT in HEK293T cells; type: cell-based; conditions: peptide 30 µM, n = 4
T1 construct: host or cells: HEK293T
Description: (§1) Intracellular protein–protein interaction (PPI) inhibition assays were carried out using the NanoBiT system (Promega). Three kinds of plasmids with CMV promoters, which encodes human K-Ras(G12D) fusing SmBiT to the N-terminus, encodes human SOS1 fusing LgBiT to the C-terminus, and encodes human BRAF fusing LgBiT to the C-terminus, were prepared by Promega. Each combination of plasmids was transfected to HEK293T cells by FuGENE HD Reagent (E2312, […]). After 30 h incubation at 37 °C under 5% CO2, the cells were recovered, and seeded to 96-well tissue culture white plate with 10% FBS containing DMEM, and incubated overnight. Peptides were added to the plate and incubated for another 2 h. Nano-Glo (Promega, N2011) was directly added to the plate, and luminescence was immediately monitored. Intracellular K-Ras(G12D)^GDP–SOS1 and K-Ras(G12D)^GTP–BRAF interactions (%) were calculated based on no peptide treatment as 100% and only transfection of plasmid encoding LgBiT fusion protein as 0%.

[4] = molecular target: T2, K-Ras(G12D)^GTP–BRAF interaction (Homo sapiens, UniProt P01116, G12D); test: as above; type: cell-based; conditions: peptide 30 µM, n = 4
T2 construct: host or cells: HEK293T
Description: as §1

[5] = molecular target: T3, recombinant K-Ras(G12D) protein (Homo sapiens, UniProt P01116, G12D); test: Cell-free ELISA binding of biotin-labeled peptides; conditions: Fig. 4A
T3 construct: purchased Abcam ab268712
Description: (§2) Ras protein was directly coated to wells of Nunc MaxiSorp microplate in PBS containing 0.01 mM GDP and 10 mM MgCl2 overnight at 4 °C. The wells were blocked in PBS containing 0.1% bovine serum albumin (BSA) for 0.5 h at 25 °C.
For binding assays of biotin-labeled peptides, Ras protein (25 μg/mL) was coated to wells of Nunc MaxiSorp 96-well clear plate (439,454) as described above. After washing the wells three times using PBS containing 0.1% Tween20 (PBST), biotin-labeled peptides in PBS containing 0.025% BSA, 0.01 mM GDP, and 10 mM MgCl2 were added to the wells. After 0.5 h incubation at 25 °C, the wells were washed with PBST three times. Bound biotin-labeled peptides were detected using horseradish peroxidase (HRP)-conjugated streptavidin (SA) (ab7403, Abcam) and 1-Step Ultra TMB-ELISA Substrate Solution (34028, Thermo Fisher Scientific). The amounts of HRP in the wells were measured by absorbance to 450 nm.

[6] = tested on: PANC-1 xenografts (pancreas weight); test: Combination administration test of KS-58 and gemcitabine; type: in vivo, mice; conditions: gemcitabine alone, 40 mg/kg intraperitoneally once every 4 days for 4 weeks
Description: To establish orthotropic xenograft tumor models, 2.5 × 10^6 cells/50 µL of PANC-1 cells were injected into the pancreas of BALB/cAJcl-nu/nu male mice (8 weeks old; CLEA Japan, Inc.). KS-58 was dissolved in DMSO and then tenfold diluted by saline. The peptide solution was then injected intravenously to the mice bearing tumors once every 2 days for 4 weeks (40 mg/kg, n = 7). Organ weights of the pancreas, liver, and kidney were measured. In combination administration test, gemcitabine hydrochloride solution (Nipponkayaku) was tenfold diluted by saline and then injected intraperitoneally to the mice bearing tumors once every 4 days for 4 weeks (40 mg/kg, n = 10), and peptide solution prepared as a same manner described above was injected intravenously to the mice bearing tumors once every 2 days for 4 weeks (10, 20, or 40 mg/kg, n = 10). Organ weights of the pancreas were measured.

[7] = molecular target: T3, recombinant K-Ras(G12D) protein; test: Competition binding assay (ELISA) against Biotin-KRpep-2d; conditions: competitive inhibition of Biotin-KRpep-2d (100 nM) binding; n = 4, ± SEM
Description: as §2
For competition binding assays, Ras protein (250 ng/mL) was coated to wells of Nunc MaxiSorp 96-well clear plate (439454) as described above. […] The amounts of HRP in the wells were measured by absorbance at 450 nm.

KS-58 (peptide)
cell proliferation (%) of A427 cells (K-Ras G12D) at 30 µM peptide, 72 h, CellTiter-Glo [1]: 21.1%
cell proliferation (%) of PANC-1 cells (K-Ras G12D) at 30 µM peptide, 72 h, CellTiter-Glo [1]: 50.1%
pERK (%) in A427 cells (K-Ras G12D) at 30 µM peptide [1]: 26%
pERK (%) in PANC-1 cells (K-Ras G12D) at 30 µM peptide [1]: 57.6%
percent of K-Ras(G12D)-BRAF NanoBiT luminescence left at 30 µM peptide [2]: 53.8%
percent of K-Ras(G12D)-SOS1 NanoBiT luminescence left at 30 µM peptide [2]: 35.5%

c(βAla-Pro-Nle-Cys-Anon-Ser-4fF-Asp-Pro-Trp-^DCys) [KS-58(monocyclic)]
Cell proliferation (%) (A427 cells): 87.1 ± 1.4%
Intracellular K-Ras(G12D)^GDP–SOS1 interaction (luminescence, %) [3]: weaker inhibition activity than KS-58
Intracellular K-Ras(G12D)^GTP–BRAF interaction (luminescence, %) [4]: weaker inhibition activity than KS-58

CCCCCCC[C@@H]1NC(=O)[C@@H]2CSCCCSC[C@@H](NC(=O)[C@H](Cc3c[nH]c4ccccc34)NC(=O)[C@H](CCCCNC(=O)CCCCCNC(=O)CCCC[C@@H]3SC[C@@H]4NC(=O)N[C@@H]43)NC(=O)[C@H](CC(=O)O)NC(=O)[C@H](Cc3ccc(F)cc3)NC(=O)[C@H](CO)NC1=O)C(=O)NCCC(=O)N1CCC[C@H]1C(=O)N[C@@H](CCCC)C(=O)N2 [Biotin-KS-58, c[βAla-Pro-Nle-c(Cys-Anon-Ser-4fF-Asp-Lys(εN-biotin)-Trp-^DCys)]] (cyclo([βAla]P[Nle]C[X1]S[Phe(4-F)]DK([Ahx-Biotin])W[dC]); linker 4-11 via X2)
Binding activity to K-Ras(G12D) protein in ELISA (in words) [5]: peptide concentration-dependent binding

Nc1ccn([C@@H]2O[C@H](CO)[C@@H](O)C2(F)F)c(=O)n1 [Gemcitabine, gemcitabine]
cell growth of PANC-1 (pancreas weight; Sham = 0%, vehicle = 100%) [6]: 66%

c[Arg-Arg-Arg-Arg-c(Dap-Pro-Nle-Trp-Anon-Dap-Cha-Asp-Pro-Trp-Asp)-Arg-Arg-Arg-Arg] [KS-36]
K-Ras(G12D)-binding activity, fold-value compared to the parental KRpep-2d set as 1.0 [7]: about 30 Fold
Cell proliferation (%) (A427 cells): 33.1% and 33.1 ± 9.6%
